≈ marks a conversion by molar mass, not a printed value.
Columns and labels:
Escherichia coli [1] = test: Antibacterial activity against Escherichia coli 10675 assessed as inhibition of bacterial growth incubated for 16 to 20 hrs; format: functional; conditions: time 16-20 hrs
Enterococcus faecium [2] = test: Bactericidal activity against Enterococcus faecium 10067 assessed as inhibition of bacterial growth incubated for 16 to 20 hrs in presence of human serum; format: functional; conditions: time 16-20 hrs
Vibrio vulnificus [3] = test: Bactericidal activity against Vibrio vulnificus 204 assessed as inhibition of bacterial growth incubated for 16 to 20 hrs in presence of human serum; format: functional; conditions: time 16-20 hrs
Klebsiella pneumoniae [4] = test: Antibacterial activity against Klebsiella pneumoniae TL 297 assessed as inhibition of bacterial growth incubated for 16 to 20 hrs in presence of human serum; format: functional; conditions: time 16-20 hrs
Pseudomonas aeruginosa [5] = test: Antibacterial activity against Pseudomonas aeruginosa 19660 assessed as inhibition of bacterial growth incubated for 16 to 20 hrs in presence of human serum; format: functional; conditions: time 16-20 hrs
Escherichia coli [6] = test: Antibacterial activity against Escherichia coli 10675 assessed as inhibition of bacterial growth incubated for 16 to 20 hrs in presence of human serum; format: functional; conditions: time 16-20 hrs
Enterococcus faecalis [7] = test: Antibacterial activity against Enterococcus faecalis 10066 assessed as inhibition of bacterial growth incubated for 16 to 20 hrs; format: functional; conditions: time 16-20 hrs
Acinetobacter baumannii [8] = test: Antibacterial activity against Acinetobacter baumannii 10591 assessed as inhibition of bacterial growth incubated for 16 to 20 hrs; format: functional; conditions: time 16-20 hrs
Vibrio vulnificus [9] = test: Antibacterial activity against Vibrio vulnificus 204 assessed as inhibition of bacterial growth incubated for 16 to 20 hrs; format: functional; conditions: time 16-20 hrs
Pseudomonas aeruginosa [10] = test: Bactericidal activity against Pseudomonas aeruginosa 19660 assessed as inhibition of bacterial growth incubated for 16 to 20 hrs in presence of human serum; format: functional; conditions: time 16-20 hrs
Salmonella typhimurium [11] = test: Antibacterial activity against Salmonella typhimurium DT104 assessed as inhibition of bacterial growth incubated for 16 to 20 hrs; format: functional, Salmonella enterica subsp. enterica serovar Typhimurium; conditions: Salmonella enterica, time 16-20 hrs
Klebsiella pneumoniae [12] = test: Antibacterial activity against Klebsiella pneumoniae BAA 2473 assessed as inhibition of bacterial growth incubated for 16 to 20 hrs; format: functional; conditions: time 16-20 hrs
Salmonella typhimurium [13] = test: Bactericidal activity against Salmonella typhimurium DT104 assessed as inhibition of bacterial growth incubated for 16 to 20 hrs in presence of human serum; format: functional, Salmonella enterica subsp. enterica serovar Typhimurium; conditions: Salmonella enterica, time 16-20 hrs
Pseudomonas aeruginosa [14] = test: Bactericidal activity against Pseudomonas aeruginosa 19660 assessed as inhibition of bacterial growth incubated for 16 to 20 hrs; format: functional; conditions: time 16-20 hrs
Klebsiella pneumoniae [15] = test: Antibacterial activity against Klebsiella pneumoniae 10692 assessed as inhibition of bacterial growth incubated for 16 to 20 hrs; format: functional; conditions: time 16-20 hrs
[16] = system: Staphylococcus haemolyticus; test: Antibacterial activity against Staphylococcus haemolyticus 15237 assessed as inhibition of bacterial growth incubated for 16 to 20 hrs; format: functional; conditions: time 16-20 hrs
Rhizopus arrhizus [17] = test: Antifungal activity against Rhizopus oryzae 34550 assessed as inhibition of fungal growth incubated for 16 to 20 hrs; format: functional; conditions: time 16-20 hrs
Rhizopus arrhizus [18] = test: Fungicidal activity against Rhizopus oryzae 34550 assessed as inhibition of fungal growth incubated for 72 hrs; format: functional
Pseudomonas aeruginosa [19] = test: Antibacterial activity against Pseudomonas aeruginosa 19660 assessed as inhibition of bacterial growth incubated for 16 to 20 hrs; format: functional; conditions: time 16-20 hrs
Salmonella enterica [20] = test: Antibacterial activity against Salmonella enterica 15455 assessed as inhibition of bacterial growth incubated for 16 to 20 hrs; format: functional; conditions: time 16-20 hrs
Enterococcus faecalis [21] = test: Bactericidal activity against Enterococcus faecalis 10066 assessed as inhibition of bacterial growth incubated for 16 to 20 hrs; format: functional; conditions: time 16-20 hrs
Salmonella enterica [22] = test: Antibacterial activity against Salmonella enterica 15455 assessed as inhibition of bacterial growth incubated for 16 to 20 hrs in presence of human serum; format: functional; conditions: time 16-20 hrs
Escherichia coli [23] = test: Bactericidal activity against Escherichia coli 10675 assessed as inhibition of bacterial growth incubated for 16 to 20 hrs in presence of human serum; format: functional; conditions: time 16-20 hrs
Escherichia coli [24] = test: Bactericidal activity against Escherichia coli 10675 assessed as inhibition of bacterial growth incubated for 16 to 20 hrs; format: functional; conditions: time 16-20 hrs
Acinetobacter baumannii [25] = test: Bactericidal activity against Acinetobacter baumannii 10591 assessed as inhibition of bacterial growth incubated for 16 to 20 hrs in presence of human serum; format: functional; conditions: time 16-20 hrs
[26] = system: Staphylococcus haemolyticus; test: Bactericidal activity against Staphylococcus haemolyticus 15237 assessed as inhibition of bacterial growth incubated for 16 to 20 hrs; format: functional; conditions: time 16-20 hrs
Vibrio vulnificus [27] = test: Bactericidal activity against Vibrio vulnificus 204 assessed as inhibition of bacterial growth incubated for 16 to 20 hrs; format: functional; conditions: time 16-20 hrs
Salmonella enterica [28] = test: Bactericidal activity against Salmonella enterica 15455 assessed as inhibition of bacterial growth incubated for 16 to 20 hrs in presence of human serum; format: functional; conditions: time 16-20 hrs
Klebsiella aerogenes [29] = test: Antibacterial activity against Enterobacter aerogenes 15630 assessed as inhibition of bacterial growth incubated for 16 to 20 hrs; format: functional; conditions: time 16-20 hrs
Klebsiella pneumoniae [30] = test: Bactericidal activity against Klebsiella pneumoniae TL 297 assessed as inhibition of bacterial growth incubated for 16 to 20 hrs in presence of human serum; format: functional; conditions: time 16-20 hrs
Klebsiella pneumoniae [31] = test: Bactericidal activity against Klebsiella pneumoniae BAA 2473 assessed as inhibition of bacterial growth incubated for 16 to 20 hrs; format: functional; conditions: time 16-20 hrs
Klebsiella pneumoniae [32] = test: Bactericidal activity against Klebsiella pneumoniae 10692 assessed as inhibition of bacterial growth incubated for 16 to 20 hrs; format: functional; conditions: time 16-20 hrs
Acinetobacter baumannii [33] = test: Antibacterial activity against Acinetobacter baumannii 10591 assessed as inhibition of bacterial growth incubated for 16 to 20 hrs in presence of human serum; format: functional; conditions: time 16-20 hrs
Salmonella enterica [34] = test: Bactericidal activity against Salmonella enterica 15455 assessed as inhibition of bacterial growth incubated for 16 to 20 hrs; format: functional; conditions: time 16-20 hrs
Salmonella typhimurium [35] = test: Bactericidal activity against Salmonella typhimurium DT104 assessed as inhibition of bacterial growth incubated for 16 to 20 hrs; format: functional, Salmonella enterica subsp. enterica serovar Typhimurium; conditions: Salmonella enterica, time 16-20 hrs
Rhizopus arrhizus [36] = test: Fungicidal activity against Rhizopus oryzae 34550 assessed as inhibition of fungal growth incubated for 16 to 20 hrs in presence of human serum; format: functional; conditions: time 16-20 hrs
Yersinia enterocolitica [37] = test: Bactericidal activity against Yersinia enterocolitica 13999 assessed as inhibition of bacterial growth incubated for 16 to 20 hrs; format: functional; conditions: time 16-20 hrs
Acinetobacter baumannii [38] = test: Bactericidal activity against Acinetobacter baumannii 10591 assessed as inhibition of bacterial growth incubated for 16 to 20 hrs; format: functional; conditions: time 16-20 hrs
Klebsiella oxytoca [39] = test: Bactericidal activity against Klebsiella oxytoca 13985 assessed as inhibition of bacterial growth incubated for 16 to 20 hrs; format: functional; conditions: time 16-20 hrs
Klebsiella oxytoca [40] = test: Antibacterial activity against Klebsiella oxytoca 13985 assessed as inhibition of bacterial growth incubated for 16 to 20 hrs; format: functional; conditions: time 16-20 hrs
Salmonella typhimurium [41] = test: Antibacterial activity against Salmonella typhimurium DT104 assessed as inhibition of bacterial growth incubated for 16 to 20 hrs in presence of human serum; format: functional, Salmonella enterica subsp. enterica serovar Typhimurium; conditions: Salmonella enterica, time 16-20 hrs
Klebsiella oxytoca [42] = test: Bactericidal activity against Klebsiella oxytoca 13985 assessed as inhibition of bacterial growth incubated for 16 to 20 hrs in presence of human serum; format: functional; conditions: time 16-20 hrs
Enterococcus faecium [43] = test: Antibacterial activity against Enterococcus faecium 10067 assessed as inhibition of bacterial growth incubated for 16 to 20 hrs; format: functional; conditions: time 16-20 hrs
Klebsiella oxytoca [44] = test: Antibacterial activity against Klebsiella oxytoca 13985 assessed as inhibition of bacterial growth incubated for 16 to 20 hrs in presence of human serum; format: functional; conditions: time 16-20 hrs
Staphylococcus aureus [45] = test: Bactericidal activity against Staphylococcus aureus 10780 assessed as inhibition of bacterial growth incubated for 16 to 20 hrs; format: functional; conditions: time 16-20 hrs
Enterococcus faecium [46] = test: Antibacterial activity against Enterococcus faecium 10067 assessed as inhibition of bacterial growth incubated for 16 to 20 hrs in presence of human serum; format: functional; conditions: time 16-20 hrs
Enterococcus faecium [47] = test: Bactericidal activity against Enterococcus faecium 10067 assessed as inhibition of bacterial growth incubated for 16 to 20 hrs; format: functional; conditions: time 16-20 hrs
Yersinia enterocolitica [48] = test: Antibacterial activity against Yersinia enterocolitica 13999 assessed as inhibition of bacterial growth incubated for 16 to 20 hrs; format: functional; conditions: time 16-20 hrs
Klebsiella aerogenes [49] = test: Bactericidal activity against Enterobacter aerogenes 15630 assessed as inhibition of bacterial growth incubated for 16 to 20 hrs; format: functional; conditions: time 16-20 hrs
Staphylococcus aureus [50] = test: Antibacterial activity against Staphylococcus aureus 10780 assessed as inhibition of bacterial growth incubated for 16 to 20 hrs; format: functional; conditions: time 16-20 hrs
Vibrio vulnificus [51] = test: Antibacterial activity against Vibrio vulnificus 204 assessed as inhibition of bacterial growth incubated for 16 to 20 hrs in presence of human serum; format: functional; conditions: time 16-20 hrs

MIC (Escherichia coli [1]): 0.2 µM (≈ 0.0767 µg/mL)
MIC (Klebsiella pneumoniae [4]): 200 µM
MIC (Pseudomonas aeruginosa [5]): 3.13 µM
MIC (Escherichia coli [6]): 0.1 µM
MIC (Enterococcus faecalis [7]): 12.5 µM (≈ 4.79 µg/mL)
MIC (Acinetobacter baumannii [8]): 6.25 µM (≈ 2.4 µg/mL)
MIC (Vibrio vulnificus [9]): < 0.39 µM
MIC (Salmonella typhimurium [11]): < 1.56 µM
MIC (Klebsiella pneumoniae [12]): 800 µM (≈ 307 µg/mL)
MIC (Klebsiella pneumoniae [15]): 0.2 µM (≈ 0.0767 µg/mL)
MIC (Rhizopus arrhizus [17]): > 100 µM
MIC (Pseudomonas aeruginosa [19]): 3.13 µM (≈ 1.2 µg/mL)
MIC (Salmonella enterica [20]): < 1.56 µM
MIC (Salmonella enterica [22]): < 0.39 µM
MIC (Klebsiella aerogenes [29]): 0.1 µM (≈ 0.0383 µg/mL)
MIC (Acinetobacter baumannii [33]): 3.13 µM
MIC (Klebsiella oxytoca [40]): < 0.39 µM
MIC (Salmonella typhimurium [41]): < 0.369 µM
MIC (Enterococcus faecium [43]): 50 µM (≈ 19.2 µg/mL)
MIC (Klebsiella oxytoca [44]): < 0.39 µM
MIC (Enterococcus faecium [46]): 100 µM
MIC (Yersinia enterocolitica [48]): < 1.56 µM
MIC (Staphylococcus aureus [50]): 0.78 µM (≈ 0.299 µg/mL)
MIC (Vibrio vulnificus [51]): < 0.39 µM
Structure (SMILES): C[C@@H](O)[C@H]1C(=O)N2C(C(=O)O)=C(S[C@@H]3CN[C@H](C(=O)N(C)C)C3)[C@H](C)[C@H]12 [MEROPENEM]
MBC (Enterococcus faecium [2]): 100 µM
MBC (Vibrio vulnificus [3]): < 0.39 µM
MBC (Pseudomonas aeruginosa [10]): 6.25 µM
MBC (Salmonella typhimurium [13]): < 0.39 µM
MBC (Pseudomonas aeruginosa [14]): 6.25 µM (≈ 2.4 µg/mL)
MIC [16]: < 1.56 µM
MFC (Rhizopus arrhizus [18]): > 100 µM
MBC (Enterococcus faecalis [21]): 100 µM (≈ 38.3 µg/mL)
MBC (Escherichia coli [23]): 0.1 µM
MBC (Escherichia coli [24]): 0.2 µM (≈ 0.0767 µg/mL)
MBC (Acinetobacter baumannii [25]): 6.25 µM
MBC [26]: < 1.56 µM
MBC (Vibrio vulnificus [27]): < 0.39 µM
MBC (Salmonella enterica [28]): < 0.39 µM
MBC (Klebsiella pneumoniae [30]): 400 µM
MBC (Klebsiella pneumoniae [31]): 400 µM (≈ 153 µg/mL)
MBC (Klebsiella pneumoniae [32]): 0.2 µM (≈ 0.0767 µg/mL)
MBC (Salmonella enterica [34]): < 1.56 µM
MBC (Salmonella typhimurium [35]): > 100 µM
MFC (Rhizopus arrhizus [36]): 100 µM
MBC (Yersinia enterocolitica [37]): < 1.56 µM
MBC (Acinetobacter baumannii [38]): 6.25 µM (≈ 2.4 µg/mL)
MBC (Klebsiella oxytoca [39]): 0.1 µM (≈ 0.0383 µg/mL)
MBC (Klebsiella oxytoca [42]): < 0.39 µM
MBC (Staphylococcus aureus [45]): 3.13 µM (≈ 1.2 µg/mL)
MBC (Enterococcus faecium [47]): 100 µM (≈ 38.3 µg/mL)
MBC (Klebsiella aerogenes [49]): 6.25 µM (≈ 2.4 µg/mL)

From ChEMBL document CHEMBL5505958, “Optimization of sequence and chiral content enhances therapeutic potential of tilapia piscidin peptides” (Eur J Med Chem, 2024)
